Values quoted from earlier work as cited in article PMC12484987 (Scientific Reports, 2025).
Values joined by “and” are separate entries in the source; they are usually repeats but may differ in a detail not shown here. Equal entries are not always repeated.

Assays:
HL-60 (promyeloblast) = details: read-out: IC50 cytotoxicity; cited from earlier work
[1] = tested on: MOLT-3 (Acute lymphoblastic leukemia); details: read-out: IC50 cytotoxicity; cited from earlier work
HIV-1 RT = HIV-1 RT (Human immunodeficiency virus type 1 group M subtype B, UniProt P04585); details: quinolines of the previous publication, cited from earlier work
[2] = tested on: HeLa (Cervical carcinoma); details: read-out: IC50 cytotoxicity; cited from earlier work

With `Cc1cc(C=O)cc(C)c1Oc1cc(Nc2ccc(C#N)cn2)nc2ccccc12` [4-(2’,6’-dimethyl-4’-formylphenoxy)−2-(5’’-cyanopyridin-2’’ylamino)quinoline] as the compound, how does the IC50 (HL-60 (promyeloblast)) read?
The IC50 was 20.5 µM.

What about the IC50 [1] of the same compound?
The IC50 was 12.7 µM.

What about the “percentage inhibition against HIV-1 RT” value (HIV-1 RT) of the same compound?
Its value is 44% and 44.5%.

And the IC50 (HIV-1 RT; read-out: IC50 against HIV-1 RT)?
The IC50 was 1.93 µM.

What about the IC50 [2] of the same compound?
Its IC50 is 25.7 µM.
